Measurements from patent US4169015A, “Novel chromogenic thrombin substrates” (AB Kabi, priority 1975, dated 1979).
In brackets after ≈: the same amount, converted by molar mass. Read-outs that look alike come from different tables or passages of the source. Where a SMILES comes first, the peptide text is derived from it. The star is where a group is joined. pNA = O=[N+]([O-])c1ccc(N*)cc1; Bz = O=C(c1ccccc1)*

Tests used:
[1] = Solubility in water; assay type: physicochemical
[2] = tested on: thrombin; test: Relative reaction velocity between thrombin and chromogenic substrate (p-nitroaniline release, 405 nm); assay type: biochemical; settings: for Rel. reaction velocity: thrombin 0.4 NIH/ml, substrate 0.1 μmol/ml, relative, S-2160 = 100
Excerpt: The substrates prepared according to the examples are used for determination of thrombin as stated below.
The determination principle is based upon the fact that the splitting product formed by enzymatic hydrolysis has a UV-spectrum which is essentially different from that of the substrate. Thus, the substrate according to Example X, H--D--Phe--Pip--Arg--pNA, has an absorption maximum at 315 nm and the molar extinction coefficient of 12500. At 405 nm the absorption of the substrate has almost completely stopped. p-Nitroaniline, split off from the substrate during the enzymatic hydrolysis, has an absorption maximum at 380 nm and a molar extinction coefficient of 13200 which at 405 nm only had decreased to 9620. By spectrophotometrical determination at 405 nm it is thus possible to easily follow the amount of p-nitroaniline formed, which is proportional to the degree of the enzymatic hydrolysis which in its turn is determined by the active amount of thrombin. For other substrates according to the invention rather identical conditions exist and for this reason the determinations have consistently been made at 405 nm.
They react 4 times more rapidly with thrombin than the previously best substrate, S-2160, and are further about 10 times more soluble in water than S-2160.
Relative reactions velocity between thrombin (0.4 NIH/ml) and substrate (0.1 μmol/ml).

[3] = water, Table I, in H2O, read-out: Solubility in H2O

| Compound | solubility [1, 3] [µg/mL] | Rel. reaction velocity [2] | decrease of the velocity with which thrombin splits the substrate ([2]; versus S-2160 (benzoyl replaced with H)) | solubility ([1]; medium not stated, read-out: solubility) [µg/mL] | solubility compared with S-2160 (in words) ([1]; versus S-2160) |
| --- | --- | --- | --- | --- | --- |
| N=C(N)NCCC[C@H](NC(=O)[C@@H]1CCCCN1C(=O)[C@H](N)Cc1ccccc1)C(=O)Nc1ccc([N+](=O)[O-])cc1 [Example X, H--D--Phe--Pip--Arg--pNA.2HCl] | 3000 | 420 | – | – | – |
| CC(C)[C@H](NC(=O)[C@@H](N)Cc1ccccc1)C(=O)N[C@@H](CCCNC(=N)N)C(=O)Nc1ccc([N+](=O)[O-])cc1 [B, H-Phe-Val-Arg-pNA, reference compound] (H-Phe-Val-Arg-pNA) | 1000 (≈ 1850 µM) | 3 | about 30 times | – | – |
| N=C(N)NCCC[C@H](NC(=O)[C@@H]1CCCN1C(=O)[C@@H](N)Cc1ccccc1)C(=O)Nc1ccc([N+](=O)[O-])cc1 [IX, H--Phe--Pro--Arg--pNA.2HCl] | 1000 | 15 | – | – | – |
| CC(C)[C@H](NC(=O)[C@H](Cc1ccccc1)NC(=O)c1ccccc1)C(=O)N[C@@H](CCCNC(=N)N)C(=O)Nc1ccc([N+](=O)[O-])cc1 [Example S-2160, Bz-Phe-Val-Arg-pNA, reference compound] (Bz-Phe-Val-Arg-pNA) | 100 (≈ 155 µM) | 100 | – | 1000 (≈ 1550 µM) | considerably more soluble |
| N=C(N)NCCC[C@H](NC(=O)[C@@H]1CCCCN1C(=O)[C@@H](N)Cc1ccccc1)C(=O)Nc1ccc([N+](=O)[O-])cc1 [XI, H--Phe--Pip--Arg--pNA.2HCl] | 1000 | 9 | – | – | – |
| N=C(N)NCCC[C@H](NC(=O)[C@@H]1CCCN1C(=O)[C@H](N)Cc1ccccc1)C(=O)Nc1ccc([N+](=O)[O-])cc1 [VIII, H--D--Phe--Pro--Arg--pNA.2HCl] | 3000 | 400 | – | – | – |
